# Assay results reported in ChEMBL document CHEMBL1201862, “PubChem BioAssay data set” (2004).
#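 Test compounds were applied to cells in 96-well plates for 48 hours at 5 doses. At the GI50, growth is halved.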 Active and inactive are the calls of the source. Rule as the data show it: active = GI50 up to about 1.1 µM and inactive = higher.
# Columns and labels:
# Experiment in all cases: DTP human tumour cell line panel, 48 h
# 786-0 = tested on: 786-0
# A498 = tested on: A498
# A549 = tested on: A549
# ACHN = tested on: ACHN
# CAKI-1 = tested on: CAKI-1
# CCRF-CEM = tested on: CCRF-CEM
# COLO 205 = tested on: COLO 205
# DU-145 = tested on: DU-145
# EKVX = tested on: EKVX
# HCC 2998 = tested on: HCC 2998
# HCT-116 = tested on: HCT-116
# HCT-15 = tested on: HCT-15
# HL-60 = tested on: HL-60
# HOP-62 = tested on: HOP-62
# HOP-92 = tested on: HOP-92
# HT-29 = tested on: HT-29
# Hs-578T = tested on: Hs-578T
# IGROV-1 = tested on: IGROV-1
# K562 = tested on: K562
# KM12 = tested on: KM12
# LOX IMVI = tested on: LOX IMVI
# M14 = tested on: M14
# MCF7 = tested on: MCF7
# MDA-MB-231 = tested on: MDA-MB-231
# MDA-MB-435 = tested on: MDA-MB-435
# MDA-N = tested on: MDA-N
# MOLT-4 = tested on: MOLT-4
# Malme-3M = tested on: Malme-3M
# NCI-H226 = tested on: NCI-H226
# NCI-H23 = tested on: NCI-H23
# NCI-H460 = tested on: NCI-H460
# NCI-H522 = tested on: NCI-H522
# NCI/ADR-RES = tested on: NCI/ADR-RES
# OVCAR-3 = tested on: OVCAR-3
# OVCAR-4 = tested on: OVCAR-4
# OVCAR-5 = tested on: OVCAR-5
# OVCAR-8 = tested on: OVCAR-8
# PC-3 = tested on: PC-3
# RPMI-8226 = tested on: RPMI-8226
# RXF 393 = tested on: RXF 393
# SF-268 = tested on: SF-268
# SF-295 = tested on: SF-295
# SF-539 = tested on: SF-539
# SK-MEL-28 = tested on: SK-MEL-28
# SK-MEL-2 = tested on: SK-MEL-2
# SK-MEL-5 = tested on: SK-MEL-5
# SK-OV-3 = tested on: SK-OV-3
# SN12C = tested on: SN12C
# SNB-19 = tested on: SNB-19
# SNB-75 = tested on: SNB-75
# SR = tested on: SR
# SW-620 = tested on: SW-620
# T47D = tested on: T47D
# TK-10 = tested on: TK-10
# U-251 = tested on: U-251
# UACC-257 = tested on: UACC-257
# UACC-62 = tested on: UACC-62
# BT-549 = tested on: BT-549
# UO-31 = tested on: UO-31
smiles,measurement,setting,value
CN(C)CCCOC(=O)C(O)(Cc1ccccc1)C1CC1 (stereo not given),GI50,786-0,> 100 µM (inactive)
same,GI50,A498,> 100 µM (inactive)
same,GI50,A549,> 100 µM (inactive)
same,GI50,ACHN,> 100 µM (inactive)
same,GI50,CAKI-1,> 100 µM (inactive)
same,GI50,CCRF-CEM,> 100 µM (inactive)
same,GI50,COLO 205,> 100 µM (inactive)
same,GI50,DU-145,> 100 µM (inactive)
same,GI50,EKVX,> 100 µM (inactive)
same,GI50,HCC 2998,> 100 µM (inactive)
same,GI50,HCT-116,> 100 µM (inactive)
same,GI50,HCT-15,> 100 µM
same,GI50,HL-60,> 100 µM (inactive)
same,GI50,HOP-62,> 100 µM (inactive)
same,GI50,HOP-92,> 100 µM (inactive)
same,GI50,HT-29,> 100 µM (inactive)
same,GI50,Hs-578T,> 100 µM (inactive)
same,GI50,IGROV-1,> 100 µM (inactive)
same,GI50,K562,> 100 µM (inactive)
same,GI50,KM12,> 100 µM (inactive)
same,GI50,LOX IMVI,> 100 µM (inactive)
same,GI50,M14,> 100 µM (inactive)
same,GI50,MCF7,> 100 µM (inactive)
same,GI50,MDA-MB-231,> 100 µM (inactive)
same,GI50,MDA-MB-435,> 100 µM (inactive)
same,GI50,MDA-N,> 100 µM (inactive)
same,GI50,MOLT-4,> 100 µM (inactive)
same,GI50,Malme-3M,> 100 µM (inactive)
same,GI50,NCI-H226,> 100 µM (inactive)
same,GI50,NCI-H23,> 100 µM (inactive)
same,GI50,NCI-H460,> 100 µM (inactive)
same,GI50,NCI-H522,> 100 µM (inactive)
same,GI50,NCI/ADR-RES,> 100 µM (inactive)
same,GI50,OVCAR-3,> 100 µM (inactive)
same,GI50,OVCAR-4,> 100 µM (inactive)
same,GI50,OVCAR-5,> 100 µM (inactive)
same,GI50,OVCAR-8,> 100 µM (inactive)
same,GI50,PC-3,> 100 µM (inactive)
same,GI50,RPMI-8226,> 100 µM (inactive)
same,GI50,RXF 393,> 100 µM (inactive)
same,GI50,SF-268,> 100 µM (inactive)
same,GI50,SF-295,> 100 µM (inactive)
same,GI50,SF-539,> 100 µM (inactive)
same,GI50,SK-MEL-28,> 100 µM (inactive)
same,GI50,SK-MEL-2,> 100 µM (inactive)
same,GI50,SK-MEL-5,> 100 µM (inactive)
same,GI50,SK-OV-3,> 100 µM (inactive)
same,GI50,SN12C,> 100 µM (inactive)
same,GI50,SNB-19,> 100 µM (inactive)
same,GI50,SNB-75,79.8 µM (inactive)
same,GI50,SR,> 100 µM (inactive)
same,GI50,SW-620,> 100 µM (inactive)
same,GI50,T47D,> 100 µM (inactive)
same,GI50,TK-10,> 100 µM (inactive)
same,GI50,U-251,> 100 µM (inactive)
same,GI50,UACC-257,> 100 µM (inactive)
same,GI50,UACC-62,> 100 µM (inactive)
N#Cc1nc(C(CO)N(Cc2ccccc2)C(=O)O)oc1N (stereo not given),GI50,786-0,> 100 µM (inactive)
same,GI50,A498,> 100 µM (inactive)
same,GI50,A549,> 100 µM (inactive)
same,GI50,ACHN,> 100 µM (inactive)
same,GI50,BT-549,> 100 µM (inactive)
same,GI50,CAKI-1,> 100 µM (inactive)
same,GI50,COLO 205,> 100 µM (inactive)
same,GI50,DU-145,> 100 µM (inactive)
same,GI50,EKVX,> 100 µM (inactive)
same,GI50,HCC 2998,> 100 µM (inactive)
same,GI50,HCT-116,> 100 µM (inactive)
same,GI50,HCT-15,> 100 µM
same,GI50,HL-60,> 100 µM (inactive)
same,GI50,HOP-62,> 100 µM (inactive)
same,GI50,HOP-92,> 100 µM (inactive)
same,GI50,HT-29,> 100 µM (inactive)
same,GI50,IGROV-1,> 100 µM (inactive)
same,GI50,K562,> 100 µM (inactive)
same,GI50,KM12,> 100 µM (inactive)
same,GI50,LOX IMVI,> 100 µM (inactive)
same,GI50,M14,> 100 µM (inactive)
same,GI50,MCF7,> 100 µM (inactive)
same,GI50,MDA-MB-231,> 100 µM (inactive)
same,GI50,MDA-MB-435,> 100 µM (inactive)
same,GI50,MOLT-4,> 100 µM (inactive)
same,GI50,NCI-H226,> 100 µM (inactive)
same,GI50,NCI-H23,> 100 µM (inactive)
same,GI50,NCI-H460,> 100 µM (inactive)
same,GI50,NCI-H522,12.4 µM (inactive)
same,GI50,NCI/ADR-RES,> 100 µM (inactive)
same,GI50,OVCAR-3,> 100 µM (inactive)
same,GI50,OVCAR-4,> 100 µM (inactive)
same,GI50,OVCAR-5,> 100 µM (inactive)
same,GI50,OVCAR-8,> 100 µM (inactive)
same,GI50,PC-3,> 100 µM (inactive)
same,GI50,RPMI-8226,> 100 µM (inactive)
same,GI50,RXF 393,> 100 µM (inactive)
same,GI50,SF-268,> 100 µM (inactive)
same,GI50,SF-295,> 100 µM (inactive)
same,GI50,SF-539,> 100 µM (inactive)
same,GI50,SK-MEL-28,> 100 µM (inactive)
same,GI50,SK-MEL-2,> 100 µM (inactive)
same,GI50,SK-MEL-5,> 100 µM (inactive)
same,GI50,SK-OV-3,> 100 µM (inactive)
same,GI50,SN12C,> 100 µM (inactive)
same,GI50,SNB-75,> 100 µM (inactive)
same,GI50,SR,> 100 µM (inactive)
same,GI50,T47D,> 100 µM (inactive)
same,GI50,TK-10,> 100 µM (inactive)
same,GI50,U-251,> 100 µM (inactive)
same,GI50,UACC-257,> 100 µM (inactive)
same,GI50,UACC-62,> 100 µM (inactive)
same,GI50,UO-31,> 100 µM (inactive)
